Non-standard residues stand in square brackets, D forms with d.

The record followed here is paper PMC11169864, “Application of cysteinyl prolyl ester for the synthesis of cyclic peptides containing an RGD sequence and their biological activity measurement” (Frontiers in Chemistry, 2024).

In the experiment the test system is αvβ6 integrin. Briefly: Integrin inhibition assay (ELISA): inhibition of αvβ6 integrin binding to LAP (TGF-β1). Also on record: species or system human. As to conditions: 1 µM peptide preincubated 1 h at room temperature with 10 nM integrin αvβ6, 1.0 mM Mn2+, plate coated with 10 nM LAP (TGF-β1), absorbance at 490 nm, mean ± standard error, N = 3, numbers only in Figure 8, text gives comparisons in words. The source says:
Among the RGD-binding integrins, we selected αvβ6 integrin for measurement of the inhibition activity of the cyclic peptides. The αvβ6 integrin is reported to recognize the sequence beyond the RGD motif, RGDLXXL ([Dong et al., 2014]). Therefore, the inhibition activity of the cyclic peptides is expected to vary depending on the configuration and the modification at the CPC moiety. In addition, the inhibitor of the αvβ6 integrin is still under development ([John et al., 2020]), while an efficient inhibitor, cilengitide, exists for the αvβ3 and αvβ5 integrins ([Stupp and Ruegg, 2007]). […] The inhibitory activity of the commonly used RGD tripeptide was also measured as a control. […]
The integrin inhibition assay was performed as follows. […] The bound αvβ6 integrin was detected by the biotinylated anti-Velcro polyclonal antibody and horseradish peroxidase-conjugated streptavidin. […] The bound antibody was detected by horseradish peroxidase-conjugated streptavidin (0.53 μg/mL), followed by colorimetrically measuring the amount of bound αvβ6 integrin using o-phenylenediamine (0.4 mg/mL; FUJIFILM Wako) and H2O2 (0.006%) in a 25 mM citric acid/50 mM Na2HPO4 buffer. The colorimetric reaction was stopped with 100 μL of 2.5 M H2SO4, and the absorbance of the chromogenic substrate was measured at 490 nm using a microplate reader (Molecular Devices EMax). […]

For “cyclo(CRGDC[dP]) (cysteine pairing not given here) [3a]”, the “Inhibitory activity for binding of the αvβ6 integrin with LAP (TGF-β1)” value is “stronger than 3c and 3d”. For “cyclo([dC]RGDC[dP]) (cysteine pairing not given here) [3b]”, the “Inhibitory activity for binding of the αvβ6 integrin with LAP (TGF-β1)” value was “stronger than 3c and 3d”.
